Article PMC4370873, “The RNA Template Channel of the RNA-Dependent RNA Polymerase as a Target for Development of Antiviral Therapy of Multiple Genera within a Virus Family” (PLoS Pathogens, 2015)

Target: T1, EMCV 3Dpol (Mengo virus, UniProt P12296)
T1 construct: mature 3Dpol cut from polyprotein (1834 to 2293, 460 residues); cleavable His6-thioredoxin tag (pETG20A) removed; expressed in E. coli Rosetta (DE3) pLysS
Assay: [3H]UTP incorporation on poly(rA)/dT15, filter binding
Assay type: biochemical

T1 sequence (P12296 1834-2293): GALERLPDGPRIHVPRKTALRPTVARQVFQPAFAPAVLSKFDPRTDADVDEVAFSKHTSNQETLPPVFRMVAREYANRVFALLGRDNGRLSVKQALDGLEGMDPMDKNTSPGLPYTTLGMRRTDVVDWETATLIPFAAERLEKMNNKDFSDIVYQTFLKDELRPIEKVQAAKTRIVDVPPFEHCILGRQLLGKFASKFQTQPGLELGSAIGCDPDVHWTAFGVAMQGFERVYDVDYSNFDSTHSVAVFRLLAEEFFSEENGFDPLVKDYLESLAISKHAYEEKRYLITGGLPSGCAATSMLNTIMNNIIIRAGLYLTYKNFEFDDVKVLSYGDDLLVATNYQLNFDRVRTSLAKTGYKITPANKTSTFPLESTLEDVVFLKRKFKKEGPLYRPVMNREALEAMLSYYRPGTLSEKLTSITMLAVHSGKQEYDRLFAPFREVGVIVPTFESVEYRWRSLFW

With `N#Cc1cc([N+](=O)[O-])ccc1Oc1ccc(Cl)cc1Oc1ccc([N+](=O)[O-])cc1C#N` [GPC-N114, 2,2'-[(4-chloro-1,2-phenylene)bis(oxy)]bis(5-nitro-benzonitrile)] the Ki was 1.3 µM.
